In ChEMBL document CHEMBL4385604, “Identification of Pyrrolo[2,3- d]pyrimidine-Based Derivatives as Potent and Orally Effective Fms-like Tyrosine Receptor Kinase 3 (FLT3) Inhibitors for Treating Acute Myelogenous Leukemia” (J Med Chem, 2019):
Calls of active or inactive are those of the source. The rule behind the calls is not given here.

Columns and labels:
[1] = target: T1, Receptor-type tyrosine-protein kinase FLT3 (Homo sapiens, UniProt P36888)
T1 sequence (P36888 whole entry): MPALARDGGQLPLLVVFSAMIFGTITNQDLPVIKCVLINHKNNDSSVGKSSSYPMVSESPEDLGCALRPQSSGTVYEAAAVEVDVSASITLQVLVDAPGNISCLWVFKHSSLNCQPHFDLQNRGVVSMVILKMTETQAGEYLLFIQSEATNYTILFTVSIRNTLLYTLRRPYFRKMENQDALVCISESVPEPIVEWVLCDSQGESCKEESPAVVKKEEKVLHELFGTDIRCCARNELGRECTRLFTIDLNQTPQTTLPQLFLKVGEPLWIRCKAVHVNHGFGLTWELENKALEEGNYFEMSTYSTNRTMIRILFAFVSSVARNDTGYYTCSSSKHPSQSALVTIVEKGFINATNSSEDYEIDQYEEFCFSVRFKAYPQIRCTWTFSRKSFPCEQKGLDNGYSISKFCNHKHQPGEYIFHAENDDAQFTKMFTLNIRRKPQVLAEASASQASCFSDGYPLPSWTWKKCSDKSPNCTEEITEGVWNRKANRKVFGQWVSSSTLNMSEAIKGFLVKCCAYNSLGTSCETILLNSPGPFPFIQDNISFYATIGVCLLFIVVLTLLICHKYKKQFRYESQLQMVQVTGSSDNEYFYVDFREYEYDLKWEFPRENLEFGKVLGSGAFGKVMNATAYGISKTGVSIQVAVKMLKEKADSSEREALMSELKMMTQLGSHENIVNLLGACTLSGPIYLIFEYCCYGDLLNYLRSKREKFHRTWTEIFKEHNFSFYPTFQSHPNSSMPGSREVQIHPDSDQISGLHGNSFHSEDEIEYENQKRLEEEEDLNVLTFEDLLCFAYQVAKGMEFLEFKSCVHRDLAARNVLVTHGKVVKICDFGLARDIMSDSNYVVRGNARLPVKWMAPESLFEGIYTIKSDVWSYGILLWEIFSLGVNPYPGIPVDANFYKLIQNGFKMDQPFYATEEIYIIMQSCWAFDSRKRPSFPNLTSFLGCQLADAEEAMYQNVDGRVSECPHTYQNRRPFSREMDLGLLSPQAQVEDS

[2] = tested on: RS4-11; test: Antiproliferative activity against human RS4:11 cells harboring wild-type FLT3 measured after 72 hrs by MTT assay; format: functional, cell-based; settings: RS4-11, 72 h
[3] = tested on: HL-60; test: Antiproliferative activity against human HL60 cells harboring wild-type FLT3 measured after 72 hrs by MTT assay; format: functional, cell-based; settings: HL-60, 72 h
[4] = tested on: MV4-11; test: Antitumour activity against human MV4-11 cells xenografted in NOD/SCID mouse assessed as tumour growth inhibition; format: functional, cell-based
[5] = tested on: MOLM-13; test: Antitumour activity against human MOLM13 cells xenografted in NOD/SCID mouse assessed as tumour growth inhibition; format: functional, cell-based
[6] = tested on: MV4-11; test: cells; settings: Homo sapiens, MV4-11, 72 h
Description: Antiproliferative activity against human MV4-11 cells harboring FLT3-ITD mutant measured after 72 hrs by MTT assay

[7] = tested on: MOLM-13; test: cells; settings: Homo sapiens, MOLM-13, 72 h
Description: Antiproliferative activity against human MOLM13 cells harboring FLT3-ITD mutant measured after 72 hrs by MTT assay

[8] = tested on: BaF3; test: cells; settings: Mus musculus, BaF3, 72 h
Description: Antiproliferative activity against mouse BAF3 cells harboring FLT3-ITD mutant measured after 72 hrs by MTT assay

[9] = tested on: BaF3; test: cells; settings: Mus musculus, BaF3, 72 h; remark: listed apart in the source
Description: Antiproliferative activity against mouse BAF3 cells harboring FLT3-ITD-F691L mutant measured after 72 hrs by MTT assay

[10] = tested on: BaF3; test: cells; settings: Mus musculus, BaF3, 72 h; remark: listed apart in the source
Description: Antiproliferative activity against mouse BAF3 cells harboring FLT3-ITD-D835V mutant measured after 72 hrs by MTT assay

[11] = Tmax in Sprague-Dawley rat at 5 mg/kg, po by LC-MS/MS analysis; format: ADME, organism-based; settings: in vivo
[12] = Elimination half-life in Sprague-Dawley rat at 5 mg/kg, po by LC-MS/MS analysis; format: ADME, organism-based; settings: in vivo, read-out: beta t1/2 (converted)
[13] = Plasma clearance in Sprague-Dawley rat at 5 mg/kg, po by LC-MS/MS analysis; format: ADME, organism-based
[14] = Oral bioavailability in Sprague-Dawley rat at 5 mg/kg by LC-MS/MS analysis; format: ADME, organism-based; settings: in vivo
[15] = tested on: MOLM-13; test: Potency index, ratio of quizartinib IC50 to test compound IC50 for human MOLM13 cells harboring FLT3-ITD mutant; format: functional

Row | Compound | IC50 [1] [nM] | IC50 [2] [nM] | IC50 [3] [nM] | TGI [4] | TGI [5] | IC50 [6] [nM] | IC50 [7] [nM] | IC50 [8] [nM] | IC50 [9] [nM] | IC50 [10] [nM] | Tmax [11] [h] | half-life [12] [h] | CL/F [13] [mL/min/kg] | bioavailability [14] [%] | Ratio IC50 [15]
1 | CC(C)(C)c1cc(NC(=O)Nc2ccc(-c3cn(CCCN4CCOCC4)c4ncnc(N)c34)cc2)no1 | 9 | > 1000 | > 1000 | inactive | inactive | 0.069 | 0.193 | 0.99 | 32.1 | 61.8 |  |  |  |  | 
2 | CC(C)n1cc(-c2ccc(NC(=O)Nc3cc(C(C)(C)C)on3)cc2)c2c(N)ncnc21 | 20 | > 1000 | > 1000 |  |  | 0.1 | 0.971 | 5.3 | 12.6 | 12.2 | 0.5 | 4.22 | 255 | 12.1 | 
3 | C#CCn1cc(-c2ccc(NC(=O)Nc3cc(C(C)(C)C)on3)cc2)c2c(N)ncnc21 | 13 | > 1000 | > 1000 |  |  | 0.602 | 0.262 | 1.66 | 13.9 | 21.1 | 0.83 | 2.78 | 28.3 | 40 | 
4 | CC(C)(C)c1cc(NC(=O)Nc2ccc(-c3cn(CCCCO)c4ncnc(N)c34)cc2)no1 | 16 | > 1000 | > 1000 |  |  | 0.876 | 0.14 | 1.73 | 13.6 | 14.7 | 0.31 | 2.77 | 801 | 9.8 | 
5 | CC(C)(C)c1cc(NC(=O)Nc2ccc(-c3cn(CC#N)c4ncnc(N)c34)cc2)no1 | 9 | > 1000 | > 1000 |  |  | 0.032 | 0.038 | 0.97 | 3.61 | 9.17 | 0.44 | 3.7 | 153 | 11.2 | 
6 | CC(C)(C)c1cc(NC(=O)Nc2ccc(-c3c[nH]c4ncnc(N)c34)cc2)no1 | 6 | > 1000 | > 1000 | inactive | inactive | 0.043 | < 0.001 | 0.16 | 2.35 | 4.83 | 0.28 | 6.22 | 14.8 | 22.5 | >100
7 | CC(C)(C)c1cc(NC(=O)Nc2ccc(-c3c[nH]c4ncnc(N)c34)cc2F)no1 | 4 | > 1000 | > 1000 |  |  | 0.131 | 0.007 | 0.25 | 10.7 | 18 | 0.88 | 2.54 | 56.3 | 25.6 | 
8 | CC(C)(C)c1cc(NC(=O)Nc2ccc(-c3cn(CCN4CCOCC4)c4ncnc(N)c34)cc2)no1 | 20 | > 1000 | > 1000 | inactive | inactive | 0.329 | 1.15 | 1.07 | 34.8 | 52.4 |  |  |  |  | 
9 | CC(C)(C)OC(=O)n1cc(-c2ccc(NC(=O)Nc3cc(C(C)(C)C)on3)cc2)c2c(N)ncnc21 | 25 | > 1000 | > 1000 |  |  | 0.107 | 0.081 | 1.28 | 8.92 | 12.4 |  |  |  |  | 
